One test has as its target Syk (Homo sapiens (Human), UniProt P43405). Nature of the test: Syk enzyme inhibition (FRET, Z-LYTE). The format is biochemical. As for the experimental part:
(§1) The enzyme inhibitory activities of compounds disclosed herein are determined by FRET using synthetic peptides labelled with both donor and acceptor fluorophores (Z-LYTE, Invitrogen Ltd., Paisley, UK).
(§2) The inhibitory activities of compounds of the invention against c-Src and Syk enzymes (Invitrogen), are evaluated in a similar fashion to that described hereinabove. The relevant enzyme (3000 ng/mL or 2000 ng/mL respectively, 2.5 μL) is incubated with the test compound (either 4 μg/mL, 0.4 μg/mL, 0.04 μg/mL, or 0.004 μg/mL, 2.5 μL each) for 2 hr at RT. The FRET peptides (8 μM, 2.5 μL), and appropriate ATP solutions (2.5 μL, 800 μM for c-Src, and 60 μM ATP for Syk) are then added to the enzymes/compound mixtures and incubated for 1 hr. Development reagent (protease, 5 μL) is added for 1 hr prior to detection in a fluorescence microplate reader (Varioskan® Flash, ThermoFisher Scientific).
(§3) In all cases, the site-specific protease cleaves non-phosphorylated peptide only and eliminates the FRET signal. Phosphorylation levels of each reaction are calculated using the ratio of coumarin emission (donor) over fluorescein emission (acceptor), for which high ratios indicate high phosphorylation and low ratios indicate low phosphorylation levels. The percentage inhibition of each reaction is calculated relative to non-inhibited control and the 50% inhibitory concentration (IC50 value) is then calculated from the concentration-response curve.

Test [1] has as its system PBMCs. Description: Cell mitosis assay in PBMCs (assay g). The following applies: Homo sapiens, PBMC, test compound 5 μg/mL. It counts as cell-based. As for the experimental part: Peripheral blood mononucleocytes (PBMCs) from healthy subjects are separated from whole blood (Quintiles, London, UK) using a density gradient (Histopaque®-1077, Sigma-Aldrich, Poole, UK). The PBMCs (3 million cells per sample) are subsequently treated with 2% PHA (phytohaemagglutinin, Sigma-Aldrich, Poole, UK) for 48 hr, followed by a 20 hr exposure to varying concentrations of test compounds. At 2 hr before collection, PBMCs are treated with demecolcine (0.1 μg/mL; Invitrogen, Paisley, UK) to arrest cells in metaphase. To observe mitotic cells, PBMCs are permeabilised and fixed by adding Intraprep (50 μL; Beckman Coulter, France), and stained with anti-phospho-histone 3 (0.26 ng/L; #9701; Cell Signalling, Danvers, Mass.) and propidium iodide (1 mg/mL; Sigma-Aldrich, Poole, UK) as previously described (Muehlbauer P. A. and Schuler M. J., Mutation Research, 2003, 537:117-130). Fluorescence is observed using an ATTUNE flow cytometer (Invitrogen, Paisley, UK), gating for lymphocytes. The percentage inhibition of mitosis is calculated for each treatment relative to vehicle (0.5% DMSO) treatment.

Test [2] has as its system PBMCs. Nature of the test: IFN gamma release in CD3/CD28 stimulated PBMC cells (assay c). It counts as cell-based. To be noted: Homo sapiens, read-out: IC50 Values for Inhibition of Cytokine Release, PBMCs IFNγ. As for the experimental part:
(§4) PBMCs from healthy subjects are separated from whole blood using a density gradient (Lymphoprep, Axis-Shield Healthcare). Cells are added to a 96 well plate pre-coated with a mixture of CD3/CD28 monoclonal antibodies (0.3 μg/mL eBioscience and 3 μg/mL BD Pharmingen respectively). Compound at the desired concentration is then added to the wells and the plate left for 3 days under normal tissue culture conditions. Supernatants are harvested and IL-2 and IFN gamma release determined by Sandwich ELISA (Duo-set, R&D System). The IC50 is determined from the dose response curve.

The target of the next test is c-Src (Homo sapiens (Human), UniProt P12931). Description: c-Src enzyme inhibition (FRET, Z-LYTE). It counts as biochemical. As for the experimental part: as §1, §2, §3
Test [3] concerns PBMCs. Description: LPS-induced IL-8 release in PBMC cells (assay b). To be noted: Homo sapiens, PBMC; LPS-stimulated PBMCs; read-out: IC50 Values for Inhibition of Cytokine Release, PBMCs IL-8. It counts as cell-based, human. The method, boiled down:
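Cytokines (TNFα, IL-8) in supernatants were quantified by sandwich ELISA after a 24 h challenge with 1 ng/mL E. coli LPS at 37° C, 5% CO2. Healthy-donor PBMCs had been exposed to compound for 2 h beforehand. IC50 values were fitted from the concentration-response curves.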

The test system of another test is d-U937 cells. Description: Accumulation of β catenin in d-U937 cells (assay m). The format is cell-based, human. The following applies: percentage relative to Reference Compound at 1 μg/mL. The procedure, abridged: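 Read-out: colourimetric cell-based immunoassay for endogenous β-catenin (OD450 minus 655 reference), normalised to crystal violet absorbance at 595 nm. Test compound or vehicle was applied for 18 hr to U937 monocytes first differentiated with PMA (100 ng/mL) for 48–72 hr.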

Another test deals with GSK 3α (Homo sapiens (Human), UniProt P49840). Nature of the test: GSK 3α enzyme inhibition (FRET, Z-LYTE, Method 2). The following applies: read-out: IC50 Values for Enzyme Inhibition, GSK3α. It counts as biochemical. The procedure, abridged:
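Phosphorylation of a dual-labelled synthetic peptide by human GSK3α is read as a coumarin/fluorescein ratio after protease development. Compound stocks run 4 to 0.004 μg/mL, and ATP stock is 40 μM.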

In test [4] the test system is PBMCs. Description: IL-2 release in CD3/CD28 stimulated PBMC cells (assay c). It counts as cell-based. The following applies: Homo sapiens, read-out: IC50 Values for Inhibition of Cytokine Release, PBMCs IL-2. As for the experimental part: as §4
For test [5], the target named is p38 MAPKα isoform (MAPK14) (Homo sapiens (Human), UniProt Q16539). Description: p38 MAPKα enzyme inhibition (FRET, Z-LYTE, Method 2). It counts as biochemical. As for the experimental part: as §1
The following two assay variants can be used for determination of p38 MAPKα inhibition.
The inhibitory activities of test compounds against the p38 MAPKα isoform (MAPK14: Invitrogen), are evaluated indirectly by determining the level of activation/phosphorylation of the down-stream molecule, MAPKAP-K2. The p38 MAPKα protein (80 ng/mL, 2.5 μL) is mixed with the test compound (2.5 μL of either 4 μg/mL, 0.4 μg/mL, 0.04 μg/mL or 0.004 μg/mL) for 2 hr at RT. […] The mixture is incubated for 1 hr at RT. Development reagent (protease, 5 μL) is added for 1 hr prior to detection in a fluorescence microplate reader (Varioskan® Flash, ThermoFisher Scientific).
This method follows the same steps as Method 1 above, but utilises a higher concentration of the p38 MAPKα protein (2.5 μL of 200 ng/mL protein instead of 2.5 μL of 80 ng/mL protein) for mixing with the test compound.
as §3

Sequence of GSK 3α (P49840 whole entry): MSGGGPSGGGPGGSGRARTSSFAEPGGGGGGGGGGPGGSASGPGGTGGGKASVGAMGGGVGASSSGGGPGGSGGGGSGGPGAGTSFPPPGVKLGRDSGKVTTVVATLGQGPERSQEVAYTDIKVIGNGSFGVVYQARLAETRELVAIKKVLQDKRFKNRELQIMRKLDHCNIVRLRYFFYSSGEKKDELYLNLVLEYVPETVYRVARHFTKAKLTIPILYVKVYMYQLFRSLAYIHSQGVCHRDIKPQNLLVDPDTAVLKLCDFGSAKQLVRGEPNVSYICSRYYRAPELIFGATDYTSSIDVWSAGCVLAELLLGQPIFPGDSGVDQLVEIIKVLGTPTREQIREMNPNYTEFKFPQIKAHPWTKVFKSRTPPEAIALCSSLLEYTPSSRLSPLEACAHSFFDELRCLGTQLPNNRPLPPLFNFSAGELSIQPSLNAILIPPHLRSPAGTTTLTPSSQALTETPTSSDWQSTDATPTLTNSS
Sequence of c-Src (P12931 whole entry, looked up): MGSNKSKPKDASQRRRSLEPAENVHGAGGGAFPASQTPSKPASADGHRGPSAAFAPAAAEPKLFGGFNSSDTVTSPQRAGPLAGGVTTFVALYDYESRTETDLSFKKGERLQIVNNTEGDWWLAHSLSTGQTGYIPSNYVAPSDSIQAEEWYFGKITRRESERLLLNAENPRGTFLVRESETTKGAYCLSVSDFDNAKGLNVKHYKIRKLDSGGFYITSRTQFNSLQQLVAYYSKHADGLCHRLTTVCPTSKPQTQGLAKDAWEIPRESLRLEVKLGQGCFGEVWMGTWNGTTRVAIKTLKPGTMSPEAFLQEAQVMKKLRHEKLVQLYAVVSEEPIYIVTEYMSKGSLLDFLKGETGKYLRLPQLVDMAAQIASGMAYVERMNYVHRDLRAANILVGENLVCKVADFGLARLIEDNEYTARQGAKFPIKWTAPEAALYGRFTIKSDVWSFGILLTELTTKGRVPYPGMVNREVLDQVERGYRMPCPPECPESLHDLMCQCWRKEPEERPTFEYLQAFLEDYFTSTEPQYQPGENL
Sequence of p38 MAPKα isoform (MAPK14) (Q16539 whole entry, canonical isoform): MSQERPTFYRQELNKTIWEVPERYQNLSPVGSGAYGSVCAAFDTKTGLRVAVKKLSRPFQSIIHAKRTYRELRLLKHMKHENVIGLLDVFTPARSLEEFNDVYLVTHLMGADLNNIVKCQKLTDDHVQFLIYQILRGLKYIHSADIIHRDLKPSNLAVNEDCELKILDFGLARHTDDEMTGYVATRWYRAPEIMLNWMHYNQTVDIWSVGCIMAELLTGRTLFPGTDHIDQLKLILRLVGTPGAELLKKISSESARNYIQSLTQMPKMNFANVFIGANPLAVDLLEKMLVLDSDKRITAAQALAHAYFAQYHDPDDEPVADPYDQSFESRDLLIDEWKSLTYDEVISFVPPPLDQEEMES

As usually defined, the IC50 is the concentration that inhibits the measured activity by half. As usually defined, the inhibition is the percentage by which the read-out fell short of the control. For `COc1c(NC(=O)Nc2ccc(Oc3ccnc(Nc4cnccn4)n3)c3ccccc23)cc(C(C)(C)C)cc1P(C)(C)=O` [15(q), 1-(5-(tert-butyl)-3-(dimethylphosphoryl)-2-methoxyphenyl)-3-(4-((2-(pyrazin-2-ylamino)pyrimidin-4-yl)oxy)naphthalen-1-yl)urea], the IC50 is greater than 1640 nM on Syk; 1640 nM with PBMCs [2]; 211 nM on c-Src; 6.2 nM in the test on PBMCs [3]; 3480 nM at GSK 3α. Further, the inhibition at 5 µg/mL with PBMCs [1] was found to be 12.9%. The “% β-catenin induction” value is reported as 5.0% in the test on d-U937 cells (test compound 1 μg/mL), 9.5% with d-U937 cells (test compound 5 μg/mL) and 2.5% in the test with d-U937 cells (test compound 10 μg/mL).

As to `COc1c(CC(N)=O)cc(C(C)(C)C)cc1NC(=O)Nc1ccc(Oc2ccnc(Nc3cccc(OC(F)F)c3)c2)c2ccccc12` [38(s), 2-(5-(tert-Butyl)-3-(3-(4-((2-((3-(difluoromethoxy)phenyl)amino)pyridin-4-yl)oxy)naphthalen-1-yl)ureido)-2-methoxyphenyl)acetamide], the IC50 is greater than 1520 nM against Syk; 26.7 nM in the test with PBMCs [2]; 363 nM on c-Src; 5.3 nM with PBMCs [3]; 190 nM in the test on PBMCs [4]; greater than 15300 nM at GSK 3α.

In the case of `COc1cc(Nc2cc(Oc3ccc(NC(=O)Nc4cc(C(C)(C)C)cc(CP(C)(C)=O)c4OC)c4ccccc34)ccn2)cc(C(=O)NCCN2CCOCC2)c1` [38(v), 3-((4-((4-(3-(5-(tert-Butyl)-3-((dimethylphosphoryl)methyl)-2-methoxyphenyl)ureido)-naphthalen-1-yl)oxy)pyridin-2-yl)amino)-5-methoxy-N-(2-morpholinoethyl)benzamide], the IC50 in the test on PBMCs [2] worked out at 8.1 nM; with PBMCs [3] it was 1.7 nM; in the test with PBMCs [4] it was 84.5 nM; at GSK 3α it was 1150 nM.

Turning to `COCCOCCOCCOc1cc(Nc2nccc(Oc3ccc(NC(=O)Nc4cc(C(C)(C)C)cc(P(C)(C)=O)c4OC)c4ccccc34)n2)cc(OC)c1` [Example 1, 1-(5-(tert-Butyl)-3-(dimethylphosphoryl)-2-methoxyphenyl)-3-(4-((2-((3-methoxy-5-(2-(2-(2-methoxyethoxy)ethoxy)ethoxy)phenyl)amino)pyrimidin-4-yl)oxy)naphthalen-1-yl)urea], the IC50 at Syk was found to be 30 nM; in the test on PBMCs [2] it was 3.8 nM; at c-Src it was 9 nM; in the test with PBMCs [3], 1.1 nM; in the test with PBMCs [4], 61.2 nM; at GSK 3α, 330 nM. Moreover, the half-maximal inhibitory concentration (IC50) in [5] was 34 nM.

Take `COc1c(NC(=O)Nc2ccc(Oc3ccnc(Nc4ccn(C)n4)c3)c3ccccc23)cc(C(C)(C)C)cc1P(C)(C)=O` [Example 36, 1-(5-(tert-Butyl)-3-(dimethylphosphoryl)-2-methoxyphenyl)-3-(4-((2-((1-methyl-1H-pyrazol-3-yl)amino)pyridin-4-yl)oxy)naphthalen-1-yl)urea]: the IC50 is 54 nM on Syk; 27 nM against c-Src; 1.1 nM in the test on PBMCs [3]; 1070 nM on GSK 3α; 31 nM in test [5]. Besides, 5 µg/mL produced 86.6% inhibition with PBMCs [1]. Moreover, the “% β-catenin induction” value in the test with d-U937 cells (test compound 1 μg/mL) is recorded as 17.5%; in the test with d-U937 cells (test compound 5 μg/mL) it was 84.5%; in the test on d-U937 cells (test compound 10 μg/mL) it was 27.5%.

Consider `COc1cc(Nc2cc(Oc3ccc(NC(=O)Nc4cc(C(C)(C)C)cc(S(C)(=O)=O)c4OC)c4ccccc34)ccn2)ccc1C(=O)O` [Example 80, 4-((4-((4-(3-(5-(tert-Butyl)-2-methoxy-3-(methylsulfonyl)phenyl)ureido)naphthalen-1-yl)oxy)pyridin-2-yl)amino)-2-methoxybenzoic acid], for which the results for the IC50 in the test with PBMCs [2], with PBMCs [3] and with PBMCs [4] were 6.6 nM, 4.5 nM and 415 nM, respectively.

For the origin of these results see patent US9890185B2, “Urea derivatives useful as kinase inhibitors” (Respivert Limited, priority 2013, dated 2018).
